Measurements published in patent US10023562B2, “Heteroaryl substituted pyridyl compounds useful as kinase modulators” (BRISTOL-MYERS SQUIBB COMPANY, priority 2012, dated 2018).
Like-named read-outs stand apart in the source and are kept apart here.

Legend:
[1] = test system: TLR2 induced IL-6 in peripheral blood mononuclear cells (PBMCs); test: PBMC TLR2 Induced IL-6 Assay; assay type: cell-based; conditions: 10 μg/ml lipoteichoic acid for 5 hours, IL-6 by ELISA
Protocol: PBMC TLR2 Induced IL-6 Assay Peripheral blood mononuclear cells (PBMCs) were isolated from human blood containing the anti-coagulant EDTA (2.5 mM) by centrifugation over a FICOLL® gradient. […] At the end of the culture, plates were centrifuged at 1800 rpm for 10 minutes to pellet the cells. Supernatants were harvested and analyzed for IL-6 levels by ELISA (BD Biosciences, San Jose, Calif.).

IRAK4 = IRAK4 (Homo sapiens (Human), UniProt Q9NWZ3); test: IRAK4 Inhibition Assay; assay type: biochemical; conditions: ATP 500 μM; IRAK4 0.6 nM; 60 min at room temperature
Protocol: IRAK4 Inhibition Assay The assays were performed in U-bottom 384-well plates. […] The reaction was initiated by the combination of IRAK4 with substrates and test compounds. The reaction mixture was incubated at room temperature for 60 min. and terminated by adding 45 μL of 35 mM EDTA to each sample. The reaction mixture was analyzed on the Caliper LABCHIP® 3000 (Caliper, Hopkinton, Mass.) by electrophoretic separation of the fluorescent substrate and phosphorylated product.

[2] = Homo sapiens, PBMC, 5 h, values marked * are EC50, read-out: Cell EC50 (values marked *)
[3] = human PBMC, values marked * are EC50, read-out: Cell EC50 (values marked *)

Chain of IRAK4 (Q9NWZ3 whole entry, species assumed): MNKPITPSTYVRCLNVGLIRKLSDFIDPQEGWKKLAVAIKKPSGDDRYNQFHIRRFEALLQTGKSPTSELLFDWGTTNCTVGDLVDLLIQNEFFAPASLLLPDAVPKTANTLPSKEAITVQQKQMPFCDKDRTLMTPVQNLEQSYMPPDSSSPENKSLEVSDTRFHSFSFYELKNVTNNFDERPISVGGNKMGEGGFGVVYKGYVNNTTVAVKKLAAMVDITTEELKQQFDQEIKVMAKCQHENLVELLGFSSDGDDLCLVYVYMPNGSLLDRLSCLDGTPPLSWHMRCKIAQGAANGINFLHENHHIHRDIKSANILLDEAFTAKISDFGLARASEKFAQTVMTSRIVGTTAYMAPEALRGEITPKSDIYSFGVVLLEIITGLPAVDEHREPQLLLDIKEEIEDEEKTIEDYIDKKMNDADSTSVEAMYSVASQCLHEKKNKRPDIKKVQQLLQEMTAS

| SMILES | EC50 [1, 2] [nM] | also measured |
| --- | --- | --- |
| CC(C)Nc1cc(Nc2ncc(Cl)cc2Cl)ncc1C(=O)NC[C@@H](F)C(C)(C)O [Example 84] | 138 | IC50 (IRAK4): 1.5 nM |
| CC(C)(O)[C@H](F)CNC(=O)c1cnc(Nc2ncncc2Cl)cc1NC1CC1 [Example 105] | 336 |  |
| CC(=O)N[C@H]1CC[C@H](NC(=O)c2cnc(Nc3ncncc3Cl)cc2NC(C)C)CC1 [Example 106] | 433 |  |
| CC(C)(O)[C@H](F)CNC(=O)c1cnc(Nc2ncc(C#N)cn2)cc1N[C@H]1CCC[C@H]1F [Example 107] | 757 |  |
| CC(C)(O)[C@H](F)CNC(=O)c1cnc(Nc2ncc(F)cc2F)cc1NC1CCOCC1F (stereo partly shown) [Example 108] | 368 |  |
| CC(C)Nc1cc(Nc2ncc(O)cn2)ncc1C(=O)NC[C@@H](F)C(C)(C)O [Example 111] | 653 |  |
| COc1cnc(Nc2cc(NC3CCC3)c(C(=O)NC[C@@H](F)C(C)(C)O)cn2)nc1 [Example 112] | 87 |  |
| Cc1cnc(Nc2cc(NC(C)C)c(C(=O)NC[C@@H](F)C(C)(C)O)cn2)nc1 [Example 113] | 558 |  |
| CC(C)(O)[C@H](F)CNC(=O)c1cnc(Nc2ncc(C#N)cc2F)cc1NC1CCC(F)C1 (stereo partly shown) [Example 114] | 56 |  |
| CC(C)Nc1cc(Nc2ncc(C#N)cc2F)ncc1C(=O)N[C@H]1CC[C@H](C(=O)NC(C)C)CC1 [Example 116] | 130 |  |
| CCC(O)(CC)[C@H](F)CNC(=O)c1cnc(Nc2ncc(C#N)cn2)cc1NC(C)C [Example 117] | 202 |  |
| CC(C)Nc1cc(Nc2ncc(C#N)cc2F)ncc1C(=O)N[C@H]1CC[C@H](C(=O)NC2CC2)CC1 [Example 118] | 172 |  |
| CC(C)(O)[C@H](F)CNC(=O)c1cnc(Nc2ncc(C#N)cc2F)cc1NC12CC3CC(CC(C3)C1)C2 [Example 119] | 736 |  |
| CC(C)Nc1cc(Nc2ncc(C#N)cc2F)ncc1C(=O)NCCc1ccc(S(N)(=O)=O)cc1 [Example 121] | 49 |  |
| CC(C)(O)[C@H](F)CNC(=O)c1cnc(Nc2ncc(C#N)cc2F)cc1Nc1cccc(CO)c1 [Example 122] | 56 |  |
| CC(C)(O)[C@H](F)CNC(=O)c1cnc(Nc2ncc(Cl)cc2F)cc1NC1CC1 [Example 124] | 98 |  |
| CC(C)(O)[C@H](F)CNC(=O)c1cnc(Nc2ncc(C#N)cc2F)cc1Nc1cccc(O)c1 [Example 125] | 85 |  |
| CC(C)(O)[C@H](F)CNC(=O)c1cnc(Nc2ncc(C#N)cc2F)cc1NCC(F)(F)C(C)(C)O [Example 126] | 83 |  |
| CC(C)Nc1cc(Nc2ncc(C#N)cc2F)ncc1C(=O)NCCCOC(C)(C)C [Example 127] | 254 |  |
| CC(C)(O)[C@H](F)CNC(=O)c1cnc(Nc2ncc(C#N)cc2F)cc1Nc1cccc(S(N)(=O)=O)c1 [Example 128] | 224 |  |
| Cc1cnc(Nc2cc(NC(C)C)c(C(=O)NC[C@@H](F)C(C)(C)O)cn2)c(F)c1 [Example 129] |  | EC50 [1, 3]: 398 nM |
| COc1cccc(Nc2cc(Nc3ncc(C#N)cc3F)ncc2C(=O)NC[C@@H](F)C(C)(C)O)c1 [Example 130] | 89 |  |
| CC(C)Nc1cc(Nc2ccnc(N)n2)ncc1C(=O)NC[C@@H](F)C(C)(C)O [Example 131] | 137 |  |
| CC(C)Nc1cc(Nc2ncncc2N)ncc1C(=O)NC[C@@H](F)C(C)(C)O [Example 132] | 862 |  |
| CC(C)(O)[C@H](F)CNC(=O)c1cnc(Nc2ncc(C#N)cc2F)cc1NC12CCC(O)(CC1)C2 [Example 133] | 85 |  |
| CC(C)(O)[C@H](F)CNC(=O)c1cnc(Nc2ncc(C#N)cc2F)cc1Nc1cccc(NS(C)(=O)=O)c1 [Example 134] | 203 |  |
| CC(C)(O)[C@H](F)CNC(=O)c1cnc(Nc2ncc(C#N)cc2F)cc1Nc1cccc(C(N)=O)c1 [Example 135] | 129 |  |

| SMILES | EC50 [1, 2] [nM] | also measured |
| --- | --- | --- |
| CC(C)Nc1cc(Nc2ncc(C#N)c(N)n2)ncc1C(=O)NC[C@@H](F)C(C)(C)O [Example 136] | 63 |  |
| CC(C)Nc1cc(Nc2ncc(C#N)cc2F)ncc1C(=O)N[C@H]1CC[C@H](C(C)(C)O)CC1 [Example 137] | 72 |  |
| CCCNc1cc(Nc2ncc(C#N)cc2Cl)ncc1C(=O)NC[C@@H](F)C(C)(C)O [Example 138] | 108 |  |
| CCCNc1cc(Nc2ncc(C#N)cc2F)ncc1C(=O)NC[C@@H](F)C(C)(C)O [Example 139] | 114 |  |
| CC(C)CCNc1cc(Nc2ncc(C#N)cc2Cl)ncc1C(=O)NC[C@@H](F)C(C)(C)O [Example 140] | 241 |  |
| CC(C)CCNc1cc(Nc2ncc(C#N)cc2F)ncc1C(=O)NC[C@@H](F)C(C)(C)O [Example 141] | 412 |  |
| CC(C)(O)[C@H](F)CNC(=O)c1cnc(Nc2ncc(C#N)cc2F)cc1Nc1ccc(C(N)=O)cc1 [Example 142] | 93 |  |
| CC(C)(O)[C@H](F)CNC(=O)c1cnc(Nc2ncc(C#N)cc2Cl)cc1Nc1cccc(C(N)=O)c1 [Example 143] | 126 |  |
| Cn1nnnc1-c1cccc(Nc2cc(Nc3ncc(C#N)cc3Cl)ncc2C(=O)NC[C@@H](F)C(C)(C)O)c1 [Example 146] | 509 |  |
| Cn1nnnc1-c1ccc(Nc2cc(Nc3ncc(C#N)cn3)ncc2C(=O)NC[C@@H](F)C(C)(C)O)cc1 [Example 147] | 439 |  |
| Cn1nnnc1-c1ccc(Nc2cc(Nc3ncc(C#N)cc3Cl)ncc2C(=O)NC[C@@H](F)C(C)(C)O)cc1 [Example 148] | 111 |  |
| CS(=O)(=O)[C@H]1CC[C@H](NC(=O)c2cnc(Nc3ncc(C#N)cc3Cl)cc2NC2CCOCC2)CC1 [Example 149] | 193 |  |
| CC(C)(O)[C@H](F)CNC(=O)c1cnc(Nc2ncc(C#N)cc2Cl)cc1N[C@H]1CC[C@](C)(O)CC1 [Example 150] | 62 |  |
| CS(=O)(=O)[C@H]1CC[C@H](NC(=O)c2cnc(Nc3ncc(C#N)cc3Cl)cc2NC2CC2)CC1 [Example 151] | 187 |  |
| CC(C)(O)[C@H](F)CNC(=O)c1cnc(Nc2ncc(C#N)cc2Cl)cc1N[C@H]1CC[C@@](C)(O)CC1 [Example 152] | 260 |  |
| CC(C)(O)[C@H](F)CNC(=O)c1cnc(Nc2ncc(C#N)cc2Cl)cc1Nc1ccc2ncsc2c1 [Example 153] | 439 |  |
| CC(C)(O)[C@H](F)CNC(=O)c1cnc(Nc2ncc(C#N)c(N)n2)cc1NC1CC1 [Example 154] | 529 |  |
| CC(C)CNc1cc(Nc2ncc(C#N)cc2Cl)ncc1C(=O)NC[C@@H](F)C(C)(C)O [Example 155] | 309 |  |
| CC(C)Nc1cc(Nc2ncc(C#N)cc2Cl)ncc1C(=O)NC[C@H](F)C(C)(C)O [Example 156] | 124 |  |
| CS(=O)(=O)[C@H]1CC[C@H](NC(=O)c2cnc(Nc3ncc(C#N)cc3F)cc2Nc2cccc(C(N)=O)c2)CC1 [Example 161] | 303 |  |
| CC(C)(O)[C@H](F)CNC(=O)c1cnc(Nc2ncc(C#N)cc2Cl)cc1Nc1cccc(C#N)c1 [Example 162] | 330 |  |
| CC(Nc1cc(Nc2ncc(C#N)cn2)ncc1C(=O)NC[C@@H](F)C(C)(C)O)C1CC1 (stereo partly shown) [Example 163] | 459 |  |
| CC(C)(O)[C@H](F)CNC(=O)c1cnc(Nc2ncc(C#N)cc2F)cc1NC1COC1 [Example 164] |  | EC50 [1, 3]: 174 nM |
| COC(=O)N[C@H]1CC[C@H](NC(=O)c2cnc(Nc3ncc(C#N)cc3F)cc2NC(C)C)CC1 [Example 165] | 279 |  |
| CC(C)Nc1cc(Nc2ncc(C#N)cc2F)ncc1C(=O)NC1CCC(O)(c2ccnn2C)CC1 (stereo not shown) [Example 166] | 202 |  |
| CC(C)Nc1cc(Nc2ncc(C#N)cc2F)ncc1C(=O)NC1CCC(O)(c2nccs2)CC1 (stereo not shown) [Example 167] | 638 |  |
| CC(C)(O)[C@H](F)CNC(=O)c1cnc(Nc2ncc(C#N)cc2Cl)cc1Nc1ccc(-n2cccn2)cc1 [Example 168] | 122 |  |
